Results as given in the OligoGym collection.
Where “and” joins values, the source holds several entries; their conditions need not be identical. Equal entries are not always repeated. HELM strings list units from the 5' end as sugar, base in round brackets, then linkage (d deoxyribose, r ribose, m 2'-O-methyl, p phosphodiester). Strings are as the collection lists them, not checked against the first reports. ss, as = sense and antisense strand; [lna] = locked nucleic acid (LNA); [una] = unlocked nucleic acid; [s4r] = 4'-thioribose; [fl2r] = 2'-fluoro

conditions: siRNA
Note: test system not given here.

Substance	target mRNA knockdown
RNA1{r(G)p.r(C)p.r(U)p.r(U)p.r(C)p.r(G)p.r(G)p.r(A)p.r(A)p.r(A)p.r(C)p.r(U)p.r(G)p.r(G)p.r(A)p.[fl2r](C)p.r(A)p.r(U)p.r(C)p.r(T)p.r(T)}|RNA2{r(G)p.r(A)p.[fl2r](U)p.r(G)p.r(U)p.r(C)p.[fl2r](C)p.r(A)p.r(G)p.r(U)p.r(U)p.r(U)p.r(C)p.r(C)p.r(G)p.r(A)p.r(A)p.r(G)p.r(C)p.r(T)p.r(T)}$$$RNA1{StrandType:ss}|RNA2{StrandType:as}$	90%
RNA1{m(A)p.m(A)p.m(G)p.r(G)p.r(A)p.m(G)p.m(A)p.m(U)p.r(C)p.r(A)p.r(A)p.m(C)p.m(A)p.m(U)p.r(U)p.r(U)p.m(U)p.m(C)p.m(A)p.r(T)p.r(T)}|RNA2{m(U)p.m(G)p.m(A)p.r(A)p.r(A)p.m(A)p.m(U)p.m(G)p.r(U)p.r(U)p.r(G)p.m(A)p.m(U)p.m(C)p.r(U)p.r(C)p.m(C)p.m(U)p.m(U)p.r(T)p.r(T)}$$$RNA1{StrandType:ss}|RNA2{StrandType:as}$	45%
RNA1{r(C)p.[fl2r](U)p.r(A)p.r(G)p.r(A)p.r(G)p.r(G)p.r(A)p.r(U)p.r(C)p.r(U)p.[fl2r](U)p.r(G)p.r(A)p.r(A)p.r(G)p.r(A)p.r(C)p.r(C)p.r(T)p.r(T)}|RNA2{r(G)p.r(G)p.r(U)p.r(C)p.r(U)p.r(U)p.[fl2r](C)p.r(A)p.r(A)p.r(G)p.r(A)p.r(U)p.r(C)p.r(C)p.r(U)p.r(C)p.[fl2r](U)p.r(A)p.r(G)p.r(T)p.r(T)}$$$RNA1{StrandType:ss}|RNA2{StrandType:as}$	67% and 91%
RNA1{m(G)p.r(A)p.m(A)p.r(G)p.m(G)p.r(G)p.m(G)p.r(A)p.m(A)p.r(A)p.m(U)p.r(C)p.m(U)p.r(G)p.m(U)p.r(G)p.m(G)p.r(U)p.m(U)p.r(T)p.r(T)}|RNA2{r(A)p.r(A)p.r(C)p.r(C)p.r(A)p.r(C)p.r(A)p.r(G)p.r(A)p.r(U)p.r(U)p.r(U)p.r(C)p.r(C)p.r(C)p.r(C)p.r(U)p.r(U)p.r(C)p.r(T)p.r(T)}$$$RNA1{StrandType:ss}|RNA2{StrandType:as}$	41%
RNA1{r(A)p.r(U)p.m(C)p.r(A)p.m(C)p.r(A)p.r(A)p.r(A)p.r(C)p.r(C)p.r(C)p.r(C)p.m(U)p.r(A)p.r(G)p.r(A)p.r(G)p.r(G)p.r(G)p.r(T)p.r(T)}|RNA2{r(C)p.r(C)p.r(C)p.r(U)p.r(C)p.m(U)p.r(A)p.r(G)p.r(G)p.r(G)p.r(G)p.r(U)p.r(U)p.m(U)p.r(G)p.m(U)p.r(G)p.r(A)p.r(U)p.r(T)p.r(T)}$$$RNA1{StrandType:ss}|RNA2{StrandType:as}$	75%
RNA1{r(A)p.r(A)p.r(C)p.r(C)p.[fl2r](C)p.r(A)p.r(C)p.r(C)p.r(A)p.r(C)p.r(A)p.r(G)p.r(C)p.[fl2r](U)p.r(A)p.r(G)p.r(A)p.r(A)p.r(C)p.r(U)p.r(U)}|RNA2{r(G)p.r(U)p.r(U)p.r(C)p.[fl2r](U)p.[fl2r](A)p.r(G)p.r(C)p.[fl2r](U)p.r(G)p.r(U)p.r(G)p.r(G)p.r(U)p.r(G)p.r(G)p.r(G)p.r(U)p.r(U)p.r(U)p.r(U)}$$$RNA1{StrandType:ss}|RNA2{StrandType:as}$	86%
RNA1{r(A)p.r(A)p.r(G)p.r(G)p.r(A)p.r(G)p.r(A)p.m(U)p.m(C)p.r(A)p.r(A)p.m(C)p.r(A)p.m(U)p.m(U)p.m(U)p.m(U)p.m(C)p.r(A)p.r(T)p.r(T)}|RNA2{m(U)p.r(G)p.r(A)p.r(A)p.r(A)p.r(A)p.m(U)p.r(G)p.m(U)p.m(U)p.r(G)p.r(A)p.m(U)p.m(C)p.m(U)p.m(C)p.m(C)p.m(U)p.m(U)p.r(T)p.r(T)}$$$RNA1{StrandType:ss}|RNA2{StrandType:as}$	37%
RNA1{r(C)p.r(U)p.r(U)p.r(A)p.r(C)p.r(G)p.r(C)p.r(U)p.r(G)p.r(A)p.r(G)p.r(U)p.r(A)p.r(C)p.r(U)p.r(U)p.r(C)p.r(G)p.r(A)p.r(T)p.r(T)}|RNA2{r(U)p.r(C)p.r(G)p.r(A)p.r(A)p.r(G)p.r(U)p.r(A)p.r(C)p.r(U)p.[lna](C)p.r(A)p.r(G)p.r(C)p.r(G)p.r(U)p.r(A)p.r(A)p.r(G)p.r(T)p.r(T)}$$$RNA1{StrandType:ss}|RNA2{StrandType:as}$	50%
RNA1{r(C)p.r(G)p.r(G)p.r(G)p.[fl2r](U)p.[fl2r](A)p.r(C)p.r(G)p.r(A)p.r(G)p.r(C)p.r(C)p.r(G)p.r(G)p.r(A)p.r(A)p.r(C)p.r(C)p.r(U)p.r(T)p.r(T)}|RNA2{r(A)p.r(G)p.r(G)p.r(U)p.r(U)p.r(C)p.r(C)p.r(G)p.r(G)p.r(C)p.r(U)p.r(C)p.r(G)p.[fl2r](U)p.r(A)p.r(C)p.r(C)p.r(C)p.r(G)p.r(T)p.r(T)}$$$RNA1{StrandType:ss}|RNA2{StrandType:as}$	68%
RNA1{r(A)p.r(G)p.r(C)p.r(U)p.r(C)p.r(U)p.r(U)p.r(U)p.r(G)p.r(U)p.r(C)p.m(A)p.r(C)p.r(C)p.r(U)p.r(C)p.r(U)p.r(C)p.r(U)p.r(T)p.r(T)}|RNA2{r(A)p.r(G)p.r(A)p.r(G)p.r(A)p.r(G)p.r(G)p.r(U)p.r(G)p.r(A)p.m(C)p.m(A)p.r(A)p.r(A)p.r(G)p.r(A)p.r(G)p.r(C)p.r(U)p.r(T)p.r(T)}$$$RNA1{StrandType:ss}|RNA2{StrandType:as}$	37%
RNA1{[lna](T)p.r(G)p.[lna](A)p.r(G)p.[lna](A)p.r(G)p.r(A)p.r(A)p.[lna](A)p.r(G)p.r(C)p.[lna](A)p.r(C)p.[lna](A)p.r(G)p.r(A)p.[lna](A)p.r(A)p.r(A)p.[lna](T)p.[lna](T)}|RNA2{r(U)p.r(U)p.r(U)p.r(U)p.r(C)p.r(U)p.r(G)p.r(U)p.r(G)p.r(C)p.r(U)p.r(U)p.r(U)p.r(C)p.r(U)p.r(C)p.r(U)p.r(C)p.r(A)p.r(T)p.r(T)}$$$RNA1{StrandType:ss}|RNA2{StrandType:as}$	68%
RNA1{r(G)p.r(A)p.r(G)p.r(G)p.r(A)p.m(U)p.r(G)p.r(G)p.r(A)p.r(U)p.r(U)p.r(C)p.r(G)p.m(A)p.r(C)p.r(U)p.m(U)p.r(A)p.r(G)p.r(T)p.r(T)}|RNA2{r(C)p.m(U)p.r(A)p.r(A)p.m(G)p.r(U)p.r(C)p.r(G)p.r(A)p.r(A)p.r(U)p.r(C)p.m(C)p.r(A)p.r(U)p.r(C)p.r(C)p.r(U)p.r(C)p.r(T)p.r(T)}$$$RNA1{StrandType:ss}|RNA2{StrandType:as}$	91%
RNA1{r(C)p.r(G)p.r(U)p.r(A)p.r(C)p.r(G)p.r(C)p.r(G)p.r(G)p.r(A)p.r(A)p.r(U)p.r(A)p.r(C)p.r(U)p.r(U)p.r(C)p.r(G)p.r(A)p.r(T)p.r(T)}|RNA2{[s4r](U)p.[s4r](C)p.r(G)p.r(A)p.r(A)p.r(G)p.r(U)p.r(A)p.r(U)p.r(U)p.r(C)p.r(C)p.r(G)p.r(C)p.r(G)p.r(U)p.r(A)p.[s4r](C)p.[s4r](G)p.r(T)p.r(T)}$$$RNA1{StrandType:ss}|RNA2{StrandType:as}$	88.8%
RNA1{r(C)p.r(U)p.r(U)p.r(A)p.r(C)p.r(G)p.r(C)p.r(U)p.r(G)p.r(A)p.r(G)p.r(U)p.r(A)p.r(C)p.r(U)p.r(U)p.r(C)p.r(G)p.r(A)p.[lna](T)p.[lna](T)}|RNA2{r(U)p.r(C)p.r(G)p.r(A)p.r(A)p.r(G)p.r(U)p.r(A)p.r(C)p.r(U)p.r(C)p.r(A)p.r(G)p.r(C)p.r(G)p.r(U)p.r(A)p.r(A)p.r(G)p.[lna](T)p.[lna](T)}$$$RNA1{StrandType:ss}|RNA2{StrandType:as}$	93% and 92%
RNA1{r(A)p.r(G)p.r(A)p.m(U)p.r(G)p.r(U)p.r(U)p.r(C)p.r(U)p.r(C)p.r(G)p.m(U)p.r(A)p.r(A)p.r(G)p.r(G)p.r(A)p.r(C)p.r(G)p.r(T)p.r(T)}|RNA2{r(C)p.r(G)p.r(U)p.r(C)p.r(C)p.r(U)p.m(U)p.r(A)p.r(C)p.r(G)p.r(A)p.r(G)p.r(A)p.r(A)p.m(C)p.r(A)p.r(U)p.r(C)p.r(U)p.r(T)p.r(T)}$$$RNA1{StrandType:ss}|RNA2{StrandType:as}$	60%
RNA1{r(A)p.r(A)p.r(A)p.r(C)p.r(G)p.m(U)p.r(G)p.r(A)p.r(C)p.r(U)p.r(U)p.m(U)p.r(G)p.r(G)p.r(U)p.r(U)p.r(C)p.m(C)p.r(U)p.r(T)p.r(T)}|RNA2{r(A)p.r(G)p.r(G)p.r(A)p.r(A)p.r(C)p.m(C)p.r(A)p.r(A)p.r(A)p.r(G)p.r(U)p.m(C)p.r(A)p.r(C)p.r(G)p.r(U)p.r(U)p.r(U)p.r(T)p.r(T)}$$$RNA1{StrandType:ss}|RNA2{StrandType:as}$	82%
RNA1{[fl2r](C)p.r(G)p.[fl2r](A)p.r(A)p.[fl2r](A)p.r(G)p.[fl2r](U)p.r(G)p.[fl2r](U)p.r(A)p.[fl2r](U)p.r(C)p.[fl2r](C)p.r(G)p.[fl2r](A)p.r(A)p.[fl2r](G)p.r(A)p.[fl2r](C)p.r(T)p.r(T)}|RNA2{[fl2r](G)p.r(U)p.r(C)p.r(U)p.r(U)p.r(C)p.[fl2r](G)p.[fl2r](G)p.r(A)p.r(U)p.r(A)p.r(C)p.r(A)p.r(C)p.r(U)p.r(U)p.r(U)p.r(C)p.[fl2r](G)p.r(T)p.r(T)}$$$RNA1{StrandType:ss}|RNA2{StrandType:as}$	41%
RNA1{[s4r](C)p.[s4r](G)p.r(U)p.r(A)p.r(C)p.r(G)p.r(C)p.r(G)p.r(G)p.r(A)p.r(A)p.r(U)p.r(A)p.r(C)p.r(U)p.r(U)p.r(C)p.[s4r](G)p.[s4r](A)p.r(T)p.r(T)}|RNA2{r(U)p.r(C)p.r(G)p.r(A)p.r(A)p.r(G)p.r(U)p.r(A)p.r(U)p.r(U)p.r(C)p.r(C)p.r(G)p.r(C)p.r(G)p.r(U)p.r(A)p.[s4r](C)p.[s4r](G)p.r(T)p.r(T)}$$$RNA1{StrandType:ss}|RNA2{StrandType:as}$	92.1%
RNA1{r(A)p.r(A)p.r(G)p.r(G)p.r(A)p.r(A)p.r(C)p.r(G)p.r(G)p.r(G)p.r(G)p.r(A)p.m(C)p.r(A)p.r(C)p.r(U)p.m(U)p.r(A)p.r(C)p.r(T)p.r(T)}|RNA2{r(G)p.m(U)p.r(A)p.r(A)p.r(G)p.m(U)p.r(G)p.r(U)p.r(C)p.r(C)p.r(C)p.r(C)p.r(G)p.r(U)p.r(U)p.r(C)p.r(C)p.r(U)p.r(U)p.r(T)p.r(T)}$$$RNA1{StrandType:ss}|RNA2{StrandType:as}$	35%
RNA1{r(G)p.r(G)p.r(A)p.r(C)p.r(A)p.r(U)p.r(U)p.r(C)p.r(A)p.r(G)p.r(A)p.r(A)p.r(C)p.r(A)p.r(A)p.r(G)p.r(A)p.r(A)p.r(A)p.[una](U)p.[una](U)}|RNA2{r(U)p.r(U)p.r(U)p.r(C)p.r(U)p.[una](U)p.r(G)p.r(U)p.r(U)p.r(C)p.r(U)p.r(G)p.r(A)p.r(A)p.r(U)p.r(G)p.r(U)p.r(C)p.r(C)p.[una](U)p.[una](U)}$$$RNA1{StrandType:ss}|RNA2{StrandType:as}$	57%
